Measured values as given in patent US12173020B2, “New-type oxazolidinone compounds and preparation method therefor” (priority 2019, dated 2024).

Assays:
[1] = system: vancomycin-resistant Enterococcus (VRE); assay: agar dilution method, inhibitory effect on VRE; format: cell-based; settings: for MIC50: Enterococcus, read-out: Minimum inhibitory concentration (MIC50, μg/ml) VRE
Description: (§1) In order to determine the antibacterial activity of these new oxazolidinone-based compounds, an agar dilution method was used to test the inhibitory effect on methicillin-resistant Staphylococcus aureus (MRSA) and vancomycin-resistant Enterococcus (VRE). The bacteria inhibition effect was expressed as minimum inhibitory concentration (MIC50, μg/ml) The test results are shown in the following table.

[2] = system: methicillin-resistant Staphylococcus aureus (MRSA); assay: agar dilution method, inhibitory effect on MRSA; format: cell-based; settings: for MIC50: Staphylococcus aureus, read-out: Minimum inhibitory concentration (MIC50, μg/ml) MRSA
Description: as §1

MIC50 [1] [µg/mL] | MIC50 [2] [µg/mL] | Minimum inhibitory concentration (MIC50, μg/ml) VRE [1] [µg/mL] | Minimum inhibitory concentration (MIC50, μg/ml) MRSA [2] [µg/mL] | SMILES
0.2 | 0.2 |  |  | CCCn1nnc(-c2ccc(-c3ccc(N4C[C@@H](C(O)CF)OC4=O)cc3F)cn2)n1.O=P(O)(O)O (stereo partly drawn) [compound 142, (S)-3-(3-fluoro-4-(6-(2-propyl-2H-tetrazol-5-yl)pyridin-3-yl)phenyl)-5-(1-hydroxy-2-fluoroethyl) oxazolidin-2-one phosphate]
0.3 | 0.3 |  |  | Cn1nnc(-c2ccc(-c3ccc(N4C[C@@H](C(O)C5CC5)OC4=O)cc3F)cn2)n1.O=P(O)(O)O (stereo partly drawn) [compound 132, (S)-3-(3-fluoro-4-(6-(2-methyl-2H-tetrazol-5-yl)pyridin-3-yl)phenyl)-5-(1-hydroxy-1-cyclopropylmethyl) oxazolidin-2-one phosphate]
 |  | 0.7 | 0.7 | CCCn1nnc(-c2ccc(-c3ccc(N4C[C@H](C(O)C(F)(F)F)OC4=O)cc3F)cn2)n1.O=P(O)(O)O (stereo partly drawn) [compound 103, (R)-3-(3-fluoro-4-(6-(2-propyl-2H-tetrazol-5-yl)pyridin-3-yl)phenyl)-5-(1-hydroxy-2-trifluoroethyl) oxazolidin-2-one phosphate]
0.1 | 0.2 |  |  | Cn1nnc(-c2ccc(-c3ccc(N4C[C@H](C(O)C5CC5)OC4=O)cc3F)cn2)n1.O=P(O)(O)O (stereo partly drawn) [compound 131, (R)-3-(3-fluoro-4-(6-(2-methyl-2H-tetrazol-5-yl)pyridin-3-yl)phenyl)-5-(1-hydroxy-1-cyclopropylmethyl) oxazolidin-2-one phosphate]
 |  | 0.8 | 0.8 | CCn1nnc(-c2ccc(-c3ccc(N4C[C@@H](C(OP(=O)(O)O)C(F)(F)F)OC4=O)cc3F)cn2)n1 (stereo partly drawn) [compound 96, (S)-3-(3-fluoro-4-(6-(2-ethyl-2H-tetrazol-5-yl)pyridin-3-yl)phenyl)-5-(1-hydroxy-2-trifluoroethyl) oxazolidin-2-one phosphate]
 |  | 0.4 | 0.4 | O=C1O[C@@H](C(O)F)CN1c1ccc(-c2ccc(-c3nnn(C4CC4)n3)nc2)c(F)c1.O=P(O)(O)O (stereo partly shown) [compound 117]
 |  | 0.9 | 0.9 | O=C1O[C@H](C(OP(=O)(O)O)C(F)(F)F)CN1c1ccc(-c2ccc(-c3nnn(C4CC4)n3)nc2)c(F)c1 (stereo partly drawn) [compound 112, (S)-3-(3-fluoro-4-(6-(2-cyclopropyl-2H-tetrazol-5-yl)pyridin-3-yl)phenyl)-5-(1-hydroxy-2-trifluoroethyl) oxazolidin-2-one phosphate]
0.3 | 0.3 |  |  | C=Cn1nnc(-c2ccc(-c3ccc(N4C[C@@H](CO)OC4=O)cc3F)cn2)n1.O=P(O)(O)O [compound 86, (S)-3-(3-fluoro-4-(6-(2-vinyl-2H-tetrazol-5-yl)pyridin-3-yl)phenyl)-5-(hydroxymethyl) oxazolidin-2-one phosphate]
 |  | 0.7 | 0.7 | Cn1nnc(-c2ccc(-c3ccc(N4C[C@H](C(O)C(F)(F)F)OC4=O)cc3F)cn2)n1.O=P(O)(O)O (stereo partly drawn) [compound 93, (R)-3-(3-fluoro-4-(6-(2-methyl-2H-tetrazol-5-yl)pyridin-3-yl)phenyl)-5-(1-hydroxy-2-trifluoroethyl) oxazolidin-2-one phosphate]
0.3 | 0.3 |  |  | CC(O)[C@H]1CN(c2ccc(-c3ccc(-c4nnn(C)n4)nc3)c(F)c2)C(=O)O1.O=P(O)(O)O (stereo partly drawn) [compound 87, (R)-3-(3-fluoro-4-(6-(2-methyl-2H-tetrazol-5-yl)pyridin-3-yl)phenyl)-5-(1-hydroxyethyl) oxazolidin-2-one phosphate]
1 | 1 |  |  | CCn1nnc(-c2ccc(-c3ccc(N4C[C@@H](C(O)C5CC5)OC4=O)cc3F)cn2)n1.O=P(O)(O)O (stereo partly drawn) [compound 138, (S)-3-(3-fluoro-4-(6-(2-ethyl-2H-tetrazol-5-yl)pyridin-3-yl)phenyl)-5-(1-hydroxy-1-cyclopropylmethyl) oxazolidin-2-one phosphate]
 |  | 0.6 | 0.6 | O=C1O[C@H](C(F)OP(=O)(O)O)CN1c1ccc(-c2ccc(-c3nnn(C4CC4)n3)nc2)c(F)c1 (stereo partly drawn) [compound 118, (S)-3-(3-fluoro-4-(6-(2-cyclopropyl-2H-tetrazol-5-yl)pyridin-3-yl)phenyl)-5-(hydroxyfluoromethyl)) oxazolidin-2-one phosphate]
 |  | 0.3 | 0.3 | O=C1O[C@@H](C(O)C(F)(F)F)CN1c1ccc(-c2ccc(-c3nnn(C4CC4)n3)nc2)c(F)c1.O=P(O)(O)O (stereo partly drawn) [compound 111, (R)-3-(3-fluoro-4-(6-(2-cyclopropyl-2H-tetrazol-5-yl)pyridin-3-yl)phenyl)-5-(1-hydroxy-2-trifluoroethyl) oxazolidin-2-one phosphate]
0.3 | 0.3 |  |  | C=Cn1nnc(-c2ccc(-c3ccc(N4C[C@H](C(O)F)OC4=O)cc3F)cn2)n1.O=P(O)(O)O (stereo partly drawn) [compound 125, (R)-3-(3-fluoro-4-(6-(2-vinyl-2H-tetrazol-5-yl)pyridin-3-yl)phenyl)-5-(hydroxyfluoromethyl) oxazolidin-2-one phosphate]
0.2 | 0.2 |  |  | C=Cn1nnc(-c2ccc(-c3ccc(N4C[C@H](CO)OC4=O)cc3F)cn2)n1.O=P(O)(O)O [compound 85, (R)-3-(3-fluoro-4-(6-(2-vinyl-2H-tetrazol-5-yl)pyridin-3-yl)phenyl)-5-(hydroxymethyl) oxazolidin-2-one phosphate]
1.3 | 1.3 |  |  | Cn1nnc(-c2ccc(-c3ccc(N4C[C@H](C(O)F)OC4=O)cc3F)cn2)n1.O=P(O)(O)O (stereo partly drawn) [compound 91, (R)-3-(3-fluoro-4-(6-(2-methyl-2H-tetrazol-5-yl)pyridin-3-yl)phenyl)-5-(hydroxyfluoromethyl) oxazolidin-2-one phosphate]
 |  | 0.5 | 0.5 | Cn1nnc(-c2ccc(-c3ccc(N4C[C@@H](C(OP(=O)(O)O)C(F)F)OC4=O)cc3F)cn2)n1 (stereo partly drawn) [compound 128, (S)-3-(3-fluoro-4-(6-(2-methyl-2H-tetrazol-5-yl)pyridin-3-yl)phenyl)-5-(1-hydroxy-2-difluoroethyl) oxazolidin-2-one phosphate]
0.3 | 0.4 |  |  | CCn1nnc(-c2ccc(-c3ccc(N4C[C@H](C(O)CF)OC4=O)cc3F)cn2)n1.O=P(O)(O)O (stereo partly drawn) [compound 135, (R)-3-(3-fluoro-4-(6-(2-ethyl-2H-tetrazol-5-yl)pyridin-3-yl)phenyl)-5-(1-hydroxy-2-fluoroethyl) oxazolidin-2-one phosphate]
 |  | 0.5 | 0.5 | CCC(OP(=O)(O)O)[C@H]1CN(c2ccc(-c3ccc(-c4nnn(C5CC5)n4)nc3)c(F)c2)C(=O)O1 (stereo partly drawn) [compound 115, (R)-3-(3-fluoro-4-(6-(2-cyclopropyl-2H-tetrazol-5-yl)pyridin-3-yl)phenyl)-5-(1-hydroxypropyl)) oxazolidin-2-one phosphate]
0.4 | 0.5 |  |  | CCCn1nnc(-c2ccc(-c3ccc(N4C[C@@H](C(O)CC)OC4=O)cc3F)cn2)n1.O=P(O)(O)O (stereo partly drawn) [compound 108, (S)-3-(3-fluoro-4-(6-(2-propyl-2H-tetrazol-5-yl)pyridin-3-yl)phenyl)-5-(1-hydroxypropyl) oxazolidin-2-one phosphate]
 |  | 0.3 | 0.2 | CCC(OP(=O)(O)O)[C@@H]1CN(c2ccc(-c3ccc(-c4nnn(C5CC5)n4)nc3)c(F)c2)C(=O)O1 (stereo partly drawn) [compound 116, (S)-3-(3-fluoro-4-(6-(2-cyclopropyl-2H-tetrazol-5-yl)pyridin-3-yl)phenyl)-5-(1-hydroxypropyl)) oxazolidin-2-one phosphate]
0.5 | 0.5 |  |  | CC(O)[C@@H]1CN(c2ccc(-c3ccc(-c4nnn(C)n4)nc3)c(F)c2)C(=O)O1.O=P(O)(O)O (stereo partly drawn) [compound 88, (S)-3-(3-fluoro-4-(6-(2-methyl-2H-tetrazol-5-yl)pyridin-3-yl)phenyl)-5-(1-hydroxyethyl) oxazolidin-2-one phosphate]
0.2 | 0.3 |  |  | CCCn1nnc(-c2ccc(-c3ccc(N4C[C@H](C(O)CF)OC4=O)cc3F)cn2)n1.O=P(O)(O)O (stereo partly drawn) [compound 141, (R)-3-(3-fluoro-4-(6-(2-propyl-2H-tetrazol-5-yl)pyridin-3-yl)phenyl)-5-(1-hydroxy-2-fluoroethyl) oxazolidin-2-one phosphate]
1.9 | 1.9 |  |  | CCn1nnc(-c2ccc(-c3ccc(N4C[C@@H](CO)OC4=O)cc3F)cn2)n1.O=P(O)(O)O [compound 80, (S)-3-(3-fluoro-4-(6-(2-ethyl-2H-tetrazol-5-yl)pyridin-3-yl)phenyl)-5-(hydroxymethyl) oxazolidin-2-one phosphate]
0.4 | 0.4 |  |  | CCC(O)[C@H]1CN(c2ccc(-c3ccc(-c4nnn(C)n4)nc3)c(F)c2)C(=O)O1.O=P(O)(O)O (stereo partly drawn) [compound 89, (R)-3-(3-fluoro-4-(6-(2-methyl-2H-tetrazol-5-yl)pyridin-3-yl)phenyl)-5-(1-hydroxypropyl) oxazolidin-2-one phosphate]
0.3 | 0.3 |  |  | CC(O)[C@@H]1CN(c2ccc(-c3ccc(-c4nnn(C5CC5)n4)nc3)c(F)c2)C(=O)O1.O=P(O)(O)O (stereo partly drawn) [compound 114, (S)-3-(3-fluoro-4-(6-(2-cyclopropyl-2H-tetrazol-5-yl)pyridin-3-yl)phenyl)-5-(1-hydroxyethyl) oxazolidin-2-one phosphate]
